Measurements reported in ChEMBL document CHEMBL4831545, “Hormesis Effect of Berberine against Klebsiella pneumoniae Is Mediated by Up-Regulation of the Efflux Pump KmrA” (J Nat Prod, 2021).
Calls of active or inactive are those of the source. No cut-off for these calls is given here.

Assays:
Klebsiella pneumoniae [1] = assay: Hormesis activity against Klebsiella pneumonia assessed as promotion of bacterial growth by measuring prolonged logarithmic growth phase at 3 to 6 ug/ml measured from 840 to 1440 mins by OD600 based analysis; format: organism-based; details: in vivo, dose lower 3 µg/ml, time lower 840 min, dose upper 6 µg/ml, time upper 1440 min
Klebsiella pneumoniae [2] = assay: Hormesis activity against Klebsiella pneumonia assessed as inhibition of bacterial growth at 12 ug/ml measured after 24 hrs by OD600 based analysis; format: functional, organism-based; details: dose 12.0 µg/ml
[3] = Upregulation of efflux pump KmrA gene expression in Klebsiella pneumoniae at 3 ug/ml incubated for 12 hrs by transcriptome analysis; format: ADME; details: dose 3 µg/ml
[4] = Upregulation of KmrA promoter activity in Klebsiella pneumoniae assessed as increase in beta-galactosidase activity at 6 to 50 ug/ml by LacZ based OD600 analysis; format: ADME; details: dose 6-50 µg/ml
[5] = Upregulation of efflux pump regulator promoter activity in Klebsiella pneumoniae assessed as increase in beta-galactosidase activity at 3 to 50 ug/ml by LacZ based OD600 analysis; format: ADME; details: dose 3-50 µg/ml
Klebsiella pneumoniae [6] = assay: Hormesis activity against Klebsiella pneumonia assessed as promotion of bacterial growth by measuring increase in final OD600 at 3 ug/ml measured for 24 hrs in presence of 2 ug/ml tetracycline by OD600 based analysis; format: organism-based; details: in vivo, at 3 µg/mL
Acinetobacter baumannii [7] = assay: Hormesis activity against Acinetobacter baumannii assessed as promotion of bacterial growth by measuring prolonged logarithmic growth phase at 3 to 50 ug/ml measured for 24 hrs by OD600 based analysis; format: organism-based; details: in vivo, dose 3-50 µg/ml
Klebsiella pneumoniae [8] = assay: Hormesis activity against Klebsiella pneumoniae assessed as increase in antibiotic MIC by measuring ciprofloxacin MIC at 3 ug/ml incubated for 12 hrs by OD600 based analysis (reference value: 0.0390625 ug/ml); format: ADME, organism-based; details: in vivo, dose 3 µg/ml
Klebsiella pneumoniae [9] = assay: Hormesis activity against overnight compound-treated Klebsiella pneumoniae assessed as increase in antibiotic MIC by measuring tetracycline MIC at 3 ug/ml incubated for 12 hrs by OD600 based analysis (reference value: 6 ug/ml); format: ADME, organism-based; details: in vivo, dose 3 µg/ml
Klebsiella pneumoniae [10] = assay: Hormesis activity against overnight compound-treated Klebsiella pneumoniae assessed as increase in antibiotic MIC by measuring rifampicin MIC at 3 ug/ml incubated for 12 hrs by OD600 based analysis (reference value: 25 ug/ml); format: ADME, organism-based; details: in vivo, dose 3 µg/ml
Klebsiella pneumoniae [11] = assay: Hormesis activity against overnight compound-treated Klebsiella pneumoniae assessed as increase in antibiotic MIC by measuring hygromycinMIC at 3 ug/ml incubated for 12 hrs by OD600 based analysis (reference value: 12.5 ug/ml); format: ADME, organism-based; details: in vivo, dose 3 µg/ml
Klebsiella pneumoniae [12] = assay: Hormesis activity against Klebsiella pneumoniae deficient in KmrA gene expression assessed as increase in antibiotic MIC by measuring rifampicin MIC at 3 ug/ml incubated for 12 hrs by OD600 based analysis (reference value: 25 ug/ml); format: ADME, organism-based; details: in vivo, dose 3 µg/ml
Klebsiella pneumoniae [13] = assay: Hormesis activity against Klebsiella pneumoniae deficient in KmrA gene expression assessed as increase in antibiotic MIC by measuring azithromycin MIC at 3 ug/ml incubated for 12 hrs by OD600 based analysis (reference value: 0.78125 ug/ml); format: ADME, organism-based; details: in vivo, dose 3 µg/ml
Klebsiella pneumoniae [14] = assay: Hormesis activity against Klebsiella pneumoniae deficient in KmrA gene expression assessed as increase in antibiotic MIC by measuring meropenem MIC at 3 ug/ml incubated for 12 hrs by OD600 based analysis (reference value: 0.39625 ug/ml); format: ADME, organism-based; details: in vivo, dose 3 µg/ml
Klebsiella pneumoniae [15] = assay: Hormesis activity against overnight compound-treated Klebsiella pneumoniae deficient in KmrA gene expression assessed as increase in antibiotic MIC by measuring azithromycin MIC at 3 ug/ml incubated for 12 hrs by OD600 based analysis (reference value: 0.78125 ug/ml); format: ADME, organism-based; details: in vivo, dose 3 µg/ml
Klebsiella pneumoniae [16] = assay: Hormesis activity against overnight compound-treated Klebsiella pneumoniae deficient in KmrA gene expression assessed as increase in antibiotic MIC by measuring chloramphenicol MIC at 3 ug/ml incubated for 12 hrs by OD600 based analysis (reference value: 6.25 ug/ml); format: ADME, organism-based; details: in vivo, dose 3 µg/ml
Klebsiella pneumoniae [17] = assay: Hormesis activity against overnight compound-treated Klebsiella pneumoniae deficient in KmrA gene expression assessed as increase in antibiotic MIC by measuring meropenem MIC at 3 ug/ml incubated for 12 hrs by OD600 based analysis (reference value: 0.39625 ug/ml); format: ADME, organism-based; details: in vivo, dose 3 µg/ml
Klebsiella pneumoniae [18] = assay: Hormesis activity against overnight compound-treated Klebsiella pneumoniae deficient in KmrA gene expression assessed as increase in antibiotic MIC by measuring cefotaxime MIC at 3 ug/ml incubated for 12 hrs by OD600 based analysis (reference value: 0.39625 ug/ml); format: ADME, organism-based; details: in vivo, dose 3 µg/ml
Enterobacter cloacae [19] = assay: Hormesis activity against Enterobacter cloacae assessed as increase in antibiotic MIC by measuring azithromycin MIC at 3 ug/ml incubated for 12 hrs by OD600 based analysis (reference value: 6.25 ug/ml); format: ADME, organism-based; details: in vivo, dose 3 µg/ml
Enterobacter cloacae [20] = assay: Hormesis activity against Enterobacter cloacae assessed as increase in antibiotic MIC by measuring chloramphenicol MIC at 3 ug/ml incubated for 12 hrs by OD600 based analysis (reference value: 3.125 ug/ml); format: ADME, organism-based; details: in vivo, dose 3 µg/ml
Enterobacter cloacae [21] = assay: Hormesis activity against Enterobacter cloacae assessed as increase in antibiotic MIC by measuring meropenem MIC at 3 ug/ml incubated for 12 hrs by OD600 based analysis (reference value: 0.1953 ug/ml); format: ADME, organism-based; details: in vivo, dose 3 µg/ml
Enterobacter cloacae [22] = assay: Hormesis activity against overnight compound-treated Enterobacter cloacae assessed as increase in antibiotic MIC by measuring ampicillin MIC at 3 ug/ml incubated for 12 hrs by OD600 based analysis (reference value: 25 ug/ml); format: ADME, organism-based; details: in vivo, dose 3 µg/ml
Acinetobacter baumannii [23] = assay: Hormesis activity against Acinetobacter baumannii assessed as increase in antibiotic MIC by measuring azithromycin MIC at 3 ug/ml incubated for 12 hrs by OD600 based analysis (reference value: 200 ug/ml); format: ADME, organism-based; details: in vivo, dose 3 µg/ml
Acinetobacter baumannii [24] = assay: Hormesis activity against Acinetobacter baumannii assessed as increase in antibiotic MIC by measuring ciprofloxacin MIC at 3 ug/ml incubated for 12 hrs by OD600 based analysis (reference value: 0.3125 ug/ml); format: ADME, organism-based; details: in vivo, dose 3 µg/ml
Acinetobacter baumannii [25] = assay: Hormesis activity against Acinetobacter baumannii assessed as increase in antibiotic MIC by measuring hygromycinMIC at 3 ug/ml incubated for 12 hrs by OD600 based analysis (reference value: 125 ug/ml); format: ADME, organism-based; details: in vivo, dose 3 µg/ml
Acinetobacter baumannii [26] = assay: Hormesis activity against Acinetobacter baumannii assessed as increase in antibiotic MIC by measuring meropenem MIC at 3 ug/ml incubated for 12 hrs by OD600 based analysis (reference value: 0.625 ug/ml); format: ADME, organism-based; details: in vivo, dose 3 µg/ml
Acinetobacter baumannii [27] = assay: Hormesis activity against overnight-compound treated Acinetobacter baumannii assessed as increase in antibiotic MIC by measuring azithromycin MIC at 3 ug/ml incubated for 12 hrs by OD600 based analysis (reference value: 200 ug/ml); format: ADME, organism-based; details: in vivo, dose 3 µg/ml
Acinetobacter baumannii [28] = assay: Hormesis activity against overnight-compound treated Acinetobacter baumannii assessed as increase in antibiotic MIC by measuring ciprofloxacin MIC at 3 ug/ml incubated for 12 hrs by OD600 based analysis (reference value: 0.3125 ug/ml); format: ADME, organism-based; details: in vivo, dose 3 µg/ml
Acinetobacter baumannii [29] = assay: Hormesis activity against overnight-compound treated Acinetobacter baumannii assessed as increase in antibiotic MIC by measuring meropenem MIC at 3 ug/ml incubated for 12 hrs by OD600 based analysis (reference value: 0.625 ug/ml); format: ADME, organism-based; details: in vivo, dose 3 µg/ml

Activity (Klebsiella pneumoniae [6]): 23%
MIC (Klebsiella pneumoniae [8]): 0.07812 µg/mL
MIC (Klebsiella pneumoniae [9]): 12 µg/mL
MIC (Klebsiella pneumoniae [10]): 50 µg/mL
MIC (Klebsiella pneumoniae [11]): 12.5 µg/mL
MIC (Klebsiella pneumoniae [12]): 25 µg/mL
MIC (Klebsiella pneumoniae [13]): 0.7812 µg/mL
MIC (Klebsiella pneumoniae [14]): 0.3962 µg/mL
MIC (Klebsiella pneumoniae [15]): 1.5625 µg/mL
MIC (Klebsiella pneumoniae [16]): 6.25 µg/mL
MIC (Klebsiella pneumoniae [17]): 0.3962 µg/mL
MIC (Klebsiella pneumoniae [18]): 0.3962 µg/mL
MIC (Enterobacter cloacae [19]): 6.25 µg/mL
MIC (Enterobacter cloacae [20]): 3.125 µg/mL
MIC (Enterobacter cloacae [21]): 0.1953 µg/mL
MIC (Enterobacter cloacae [22]): 50 µg/mL
MIC (Acinetobacter baumannii [23]): 200 µg/mL
MIC (Acinetobacter baumannii [24]): 0.3125 µg/mL
MIC (Acinetobacter baumannii [25]): 250 µg/mL
MIC (Acinetobacter baumannii [26]): 0.625 µg/mL
MIC (Acinetobacter baumannii [27]): 400 µg/mL
MIC (Acinetobacter baumannii [28]): 0.625 µg/mL
MIC (Acinetobacter baumannii [29]): 0.625 µg/mL
SMILES: COc1ccc2cc3[n+](cc2c1OC)CCc1cc2c(cc1-3)OCO2 [BERBERINE]
Activity (Klebsiella pneumoniae [1]): Toxic
Activity (Klebsiella pneumoniae [2]): Active
Activity [3]: Toxic
Activity [4]: Toxic
Activity [5]: Toxic
Activity (Acinetobacter baumannii [7]): Toxic
